Key:
[1] = test system: AR42J (AR4-2J) rat pancreatic tumor cell line; experiment: In vivo AR42J tumor growth in nude mice; conditions: after 4 weeks; s.c. AR42J tumors in female nude mice; Compound B or rapamycin 5 mg/kg p.o., octreotide slow release 30 mg/kg s.c. single inj.; control 4020 (3 week value)
Procedure: Cultures are propagated in DMEM supplemented with 10% fetal calf serum (FCS) at 5% CO2. Cells are grown in the absence of antibiotics or antifungal agents. Female nude mice (nu/nu Balbc-A from Iffa Credo, Lyon, France) weighing 19-22 g, are kept in groups of 5 animals in macrolon cages (type III, 16×22×11 cm). The cages are placed in ventilated cabinets (Iffa Credo) that are maintained at 24±1° C. The animals have free access to drinking water and a pathogen-free rodent diet (Diet A, Kliba, Basel, Switzerland). To initiate tumors from cultured cells, AR42J cells are trypsinized and 10×10^6 tumor cells (in 0.2 ml) are injected subcutaneously (s.c.) into both flanks of nude mice. […] Control animals receive placebo. Animals are treated as indicated below for 3 weeks with single agents or the drug combination. The somatostatin analogue is given as a single injection of a slow release form at 30 mg/kg s.c. The size of the tumors is determined with a caliper. To calculate the tumor volume in ml, the equation “volume (ellipsoid)=length×depth×height×0.52” was used.
After 4 weeks, the following tumor sizes were determined.

AR42J cells = experiment: In vitro AR42J cell growth assay (SRB staining, delta OD); format: cell-based, rat; set-up: Cell Growth (ΔOD): unit not given here; conditions: octreotide 1.2 nM, Compound B 12.0 nM, combination 1.2 + 12.0 nM; for Cell Growth (% of CONTROL) Observed: control = 100

CO[C@H]1C[C@@H]2CC[C@@H](C)[C@@](O)(O2)C(=O)C(=O)N2CCCC[C@H]2C(=O)O[C@H]([C@H](C)C[C@@H]2CC[C@@H](OCCO)[C@H](OC)C2)CC(=O)[C@H](C)/C=C(\C)[C@@H](O)[C@@H](OC)C(=O)[C@H](C)C[C@H](C)/C=C/C=C/C=C/1C [Compound B, 40-O-(2-hydroxy)ethyl-rapamycin]
Tumor Volume [1]: 3685 mm^3 | Cell Growth (% of CONTROL) Observed (AR42J cells): 63.3%

Rapamycin
Tumor Volume [1]: 2748 mm^3

octreotide
Cell Growth (ΔOD) (AR42J cells; DMEM+2.5% FCS, control 664 ± 9): 397 ± 16 | Cell Growth (% of CONTROL) Observed (AR42J cells): 59.8%

Source: US6362164B1, “Combination of a somatostatin analogue and a rapamycin” (Novartis AG, priority 1996, dated 2002)
